Reference: publication PMC8523698, “Preclinical characterization of an intravenous coronavirus 3CL protease inhibitor for the potential treatment of COVID19” (Nature Communications, 2021)
Several values for one entry are separate records, joined by “and”; a condition that tells them apart may be missing. Equal values may be shown once. Read-outs that look alike come from different tables or passages of the source.

Tests used:
[1] = target: T1, OATP1B3 (Homo sapiens, UniProt Q9NPD5); experiment: Transporter inhibition using transfected HEK293 cells
T1 sequence (Q9NPD5 1-702): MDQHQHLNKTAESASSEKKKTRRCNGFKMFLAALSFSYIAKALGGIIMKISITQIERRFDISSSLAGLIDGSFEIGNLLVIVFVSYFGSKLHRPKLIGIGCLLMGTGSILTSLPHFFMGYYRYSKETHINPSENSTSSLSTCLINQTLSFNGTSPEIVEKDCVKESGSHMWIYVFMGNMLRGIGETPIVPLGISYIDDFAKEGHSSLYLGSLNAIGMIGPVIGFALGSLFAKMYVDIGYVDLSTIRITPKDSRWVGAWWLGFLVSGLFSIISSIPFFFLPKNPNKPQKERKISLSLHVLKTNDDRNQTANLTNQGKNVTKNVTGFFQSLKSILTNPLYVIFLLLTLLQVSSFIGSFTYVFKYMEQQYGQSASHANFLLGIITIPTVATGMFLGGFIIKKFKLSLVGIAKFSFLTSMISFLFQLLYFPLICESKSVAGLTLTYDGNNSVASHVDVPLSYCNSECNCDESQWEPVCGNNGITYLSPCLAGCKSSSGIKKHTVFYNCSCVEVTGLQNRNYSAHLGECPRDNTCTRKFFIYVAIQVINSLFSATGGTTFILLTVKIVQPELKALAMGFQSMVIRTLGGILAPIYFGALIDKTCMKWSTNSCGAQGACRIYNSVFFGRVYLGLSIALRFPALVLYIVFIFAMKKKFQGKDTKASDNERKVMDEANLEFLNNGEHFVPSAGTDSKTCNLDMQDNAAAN

[2] = system: HCoV-229E; experiment: Viral CPE assay in MRC-5 cells (CellTiter Glo); type: cell-based; conditions: Human coronavirus 229E
[3] = system: SARS-CoV-2 Washington strain 1 (USA_WA1/2020); type: cell-based
[4] = target: T2, CYP2C8 (Homo sapiens, UniProt P10632); experiment: Reversible CYP inhibition in human liver microsomes; conditions: for activity at 0.1 µM / activity at 0.214 µM / activity at 0.979 µM / activity at 2.09 µM / activity at 4.48 µM / activity at 20.5 µM / activity at 43.8 µM / activity at 93.5 µM / activity at 200 µM: pH 7.4, Percent of Control Activity
T2 sequence (P10632 1-490): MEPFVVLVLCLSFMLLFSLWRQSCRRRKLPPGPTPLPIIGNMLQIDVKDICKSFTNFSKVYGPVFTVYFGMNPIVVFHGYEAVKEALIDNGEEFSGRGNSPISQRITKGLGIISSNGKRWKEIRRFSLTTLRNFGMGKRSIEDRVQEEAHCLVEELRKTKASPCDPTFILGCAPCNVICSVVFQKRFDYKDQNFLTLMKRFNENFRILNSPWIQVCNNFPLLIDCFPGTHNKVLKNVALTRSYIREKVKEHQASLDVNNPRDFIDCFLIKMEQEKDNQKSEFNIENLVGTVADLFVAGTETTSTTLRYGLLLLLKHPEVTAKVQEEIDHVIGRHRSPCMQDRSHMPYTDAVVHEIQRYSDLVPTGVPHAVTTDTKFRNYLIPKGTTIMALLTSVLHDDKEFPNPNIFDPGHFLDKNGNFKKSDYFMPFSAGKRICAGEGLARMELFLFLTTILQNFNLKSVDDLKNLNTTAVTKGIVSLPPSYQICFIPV

Compound: COc1cccc2[nH]c(C(=O)N[C@@H](CC(C)C)C(=O)N[C@@H](C[C@@H]3CCNC3=O)C(=O)CO)cc12 [PF-00835231]
- IC50 [1]: 51.6 µM
- IC50 ([1]; human, HEK293 cells stably transfected with OATP1B3, pH 7.4, probe rosuvastatin (0.5 µM)): > 20 µM
- EC50 ([2]; MRC5, MRC-5, minus efflux inhibitor, individual determinations by date): 0.0806 µM
- EC50 ([2]; MRC5, read-out: EC50 GeoMean (95% CI), efflux inhibitor CP-100356: 0): 0.069 µM
- EC50 ([2]; MRC5, read-out: EC50 GeoMean (95% CI), efflux inhibitor CP-100356: 0.5 μM): 0.08 µM
- hill coefficient (m) [3]: 3
- Percent of Control Activity ([4]; CYP 2C8, 0.1 µM, 30-Minute Preincubation, 0.1 µM): 98.0% and 103.9%
- Percent of Control Activity ([4]; CYP 2C8, 0.1 µM, Zero-Minute Preincubation, 0.1 µM): 104.8% and 112.8%
- Percent of Control Activity ([4]; CYP 2C8, 0.214 µM, 30-Minute Preincubation, 0.214 µM): 93.1% and 90.6%
- Percent of Control Activity ([4]; CYP 2C8, 0.214 µM, Zero-Minute Preincubation, 0.214 µM): 107.5% and 109.2%
- Percent of Control Activity ([4]; CYP 2C8, 0.979 µM, 30-Minute Preincubation, 0.979 µM): 105.7% and 92.9%
- Percent of Control Activity ([4]; CYP 2C8, 2.09 µM, 30-Minute Preincubation, 2.09 µM): 93.9% and 94.5%
- Percent of Control Activity ([4]; CYP 2C8, 2.09 µM, Zero-Minute Preincubation, 2.09 µM): 100.1% and 105.9%
- Percent of Control Activity ([4]; CYP 2C8, 4.48 µM, 30-Minute Preincubation, 4.48 µM): 91.6% and 90.7%
- Percent of Control Activity ([4]; CYP 2C8, 4.48 µM, Zero-Minute Preincubation, 4.48 µM): 107.2% and 107.1%
- Percent of Control Activity ([4]; CYP 2C8, 20.5 µM, 30-Minute Preincubation, 20.5 µM): 94.2% and 94.7%
- Percent of Control Activity ([4]; CYP 2C8, 20.5 µM, Zero-Minute Preincubation, 20.5 µM): 95.8% and 108.3%
- Percent of Control Activity ([4]; CYP 2C8, 43.8 µM, 30-Minute Preincubation, 43.8 µM): 90.3%
- Percent of Control Activity ([4]; CYP 2C8, 43.8 µM, Zero-Minute Preincubation, 43.8 µM): 96.9% and 95.4%
- Percent of Control Activity ([4]; CYP 2C8, 93.5 µM, 30-Minute Preincubation, 93.5 µM): 68.7% and 77.7%
- Percent of Control Activity ([4]; CYP 2C8, 93.5 µM, Zero-Minute Preincubation, 93.5 µM): 87.1% and 95.1%
- Percent of Control Activity ([4]; CYP 2C8, 200 µM, 30-Minute Preincubation, 200 µM): 65.4% and 64.5%
- Percent of Control Activity ([4]; CYP 2C8, 200 µM, Zero-Minute Preincubation, 200 µM): 78.5% and 82.2%
- IC50 ([4]; human, microsomes, pH 7.4): > 200 µM
- activity at 0.1 µM ([4]; human, microsomes, CYP 2C8, 0.1 µM, 30-Minute Preincubation): 97.4%
- activity at 0.1 µM ([4]; human, microsomes, CYP 2C8, 0.1 µM, Zero-Minute Preincubation): 99.7%
- activity at 0.214 µM ([4]; human, microsomes, CYP 2C8, 0.214 µM, 30-Minute Preincubation): 91%
- activity at 0.214 µM ([4]; human, microsomes, CYP 2C8, 0.214 µM, Zero-Minute Preincubation): 103%
- activity at 0.979 µM ([4]; human, microsomes, CYP 2C8, 0.979 µM, 30-Minute Preincubation): 98.3%
- activity at 0.979 µM ([4]; human, microsomes, CYP 2C8, 0.979 µM, Zero-Minute Preincubation): 108%
- activity at 2.09 µM ([4]; human, microsomes, CYP 2C8, 2.09 µM, 30-Minute Preincubation): 92.8%
- activity at 2.09 µM ([4]; human, microsomes, CYP 2C8, 2.09 µM, Zero-Minute Preincubation): 110%
- activity at 4.48 µM ([4]; human, microsomes, CYP 2C8, 4.48 µM, 30-Minute Preincubation): 85.8%
- activity at 4.48 µM ([4]; human, microsomes, CYP 2C8, 4.48 µM, Zero-Minute Preincubation): 104%
- activity at 20.5 µM ([4]; human, microsomes, CYP 2C8, 20.5 µM, 30-Minute Preincubation): 86%
- activity at 20.5 µM ([4]; human, microsomes, CYP 2C8, 20.5 µM, Zero-Minute Preincubation): 93.6%
- activity at 43.8 µM ([4]; human, microsomes, CYP 2C8, 43.8 µM, 30-Minute Preincubation): 82.6%
- activity at 43.8 µM ([4]; human, microsomes, CYP 2C8, 43.8 µM, Zero-Minute Preincubation): 91.9%
- activity at 93.5 µM ([4]; human, microsomes, CYP 2C8, 93.5 µM, 30-Minute Preincubation): 76.7%
- activity at 93.5 µM ([4]; human, microsomes, CYP 2C8, 93.5 µM, Zero-Minute Preincubation): 91.2%
- activity at 200 µM ([4]; human, microsomes, CYP 2C8, 200 µM, 30-Minute Preincubation): 62.8%
- activity at 200 µM ([4]; human, microsomes, CYP 2C8, 200 µM, Zero-Minute Preincubation): 79.6%
